Test results published in ChEMBL document CHEMBL1153245, “A profile of the in vitro anti-tumor activity of imidazolium-based ionic liquids” (2010).

Experiments:
Format in all cases: functional
[1] = tested on: Malme-3M; test: Anticancer activity against human MALME-3M cells assessed cell growth at 10 uM after 48 hrs by sulforhodamine B assay relative to control
[2] = tested on: SK-MEL-28; test: Anticancer activity against human SK-MEL-28 cells assessed cell growth at 10 uM after 48 hrs by sulforhodamine B assay relative to control
[3] = tested on: SNB-19; test: Anticancer activity against human SNB19 cells assessed cell growth at 10 uM after 48 hrs by sulforhodamine B assay relative to control
[4] = tested on: CAKI-1; test: Anticancer activity against human Caki1 cells assessed cell growth at 10 uM after 48 hrs by sulforhodamine B assay relative to control
[5] = tested on: NCI-H226; test: Anticancer activity against human NCI-H226 cells assessed cell growth at 10 uM after 48 hrs by sulforhodamine B assay relative to control
[6] = tested on: ACHN; test: Anticancer activity against human ACHN cells assessed cell growth at 10 uM after 48 hrs by sulforhodamine B assay relative to control
[7] = tested on: DU-145; test: Anticancer activity against human DU145 cells assessed cell growth at 10 uM after 48 hrs by sulforhodamine B assay relative to control
[8] = tested on: HL-60(TB); test: Anticancer activity against human HL-60(TB) cells assessed cell growth at 10 uM after 48 hrs by sulforhodamine B assay relative to control
[9] = tested on: MDA-MB-435; test: Anticancer activity against human MDA-MB-435 cells assessed cell growth at 10 uM after 48 hrs by sulforhodamine B assay relative to control
[10] = tested on: IGROV-1; test: Anticancer activity against human IGROV1 cells assessed cell growth at 10 uM after 48 hrs by sulforhodamine B assay relative to control
[11] = tested on: UACC-62; test: Anticancer activity against human UACC62 cells assessed cell growth at 10 uM after 48 hrs by sulforhodamine B assay relative to control
[12] = tested on: HOP-62; test: Anticancer activity against human HOP62 cells assessed cell growth at 10 uM after 48 hrs by sulforhodamine B assay relative to control
[13] = tested on: SK-OV-3; test: Anticancer activity against human SKOV3 cells assessed cell growth at 10 uM after 48 hrs by sulforhodamine B assay relative to control
[14] = tested on: SK-MEL-5; test: Anticancer activity against human SK-MEL-5 cells assessed cell growth at 10 uM after 48 hrs by sulforhodamine B assay relative to control
[15] = tested on: HT-29; test: Anticancer activity against human HT-29 cells assessed cell growth at 10 uM after 48 hrs by sulforhodamine B assay relative to control
[16] = tested on: PC-3; test: Anticancer activity against human PC3 cells assessed cell growth at 10 uM after 48 hrs by sulforhodamine B assay relative to control
[17] = tested on: HOP-92; test: Anticancer activity against human HOP92 cells assessed cell growth at 10 uM after 48 hrs by sulforhodamine B assay relative to control
[18] = tested on: CCRF-CEM; test: Anticancer activity against human CCRF-CEM cells assessed cell growth at 10 uM after 48 hrs by sulforhodamine B assay relative to control
[19] = tested on: UACC-257; test: Anticancer activity against human UACC257 cells assessed cell growth at 10 uM after 48 hrs by sulforhodamine B assay relative to control
[20] = tested on: LOX IMVI; test: Anticancer activity against human LOXIMVI cells assessed cell growth at 10 uM after 48 hrs by sulforhodamine B assay relative to control
[21] = tested on: SF-268; test: Anticancer activity against human SF268 cells assessed cell growth at 10 uM after 48 hrs by sulforhodamine B assay relative to control
[22] = tested on: SR; test: Anticancer activity against human SR cells assessed cell growth at 10 uM after 48 hrs by sulforhodamine B assay relative to control
[23] = tested on: SNB-75; test: Anticancer activity against human SNB75 cells assessed cell growth at 10 uM after 48 hrs by sulforhodamine B assay relative to control
[24] = tested on: HCC 2998; test: Anticancer activity against human HCC2998 cells assessed cell growth at 10 uM after 48 hrs by sulforhodamine B assay relative to control
[25] = tested on: SW-620; test: Anticancer activity against human SW620 cells assessed cell growth at 10 uM after 48 hrs by sulforhodamine B assay relative to control
[26] = tested on: M14; test: Anticancer activity against human M14 cells assessed cell growth at 10 uM after 48 hrs by sulforhodamine B assay relative to control
[27] = tested on: NCI/ADR-RES; test: Anticancer activity against human NCI/ADR-RES cells assessed cell growth at 10 uM after 48 hrs by sulforhodamine B assay relative to control
[28] = tested on: K562; test: Anticancer activity against human K562 cells assessed cell growth at 10 uM after 48 hrs by sulforhodamine B assay relative to control
[29] = tested on: OVCAR-5; test: Anticancer activity against human OVCAR5 cells assessed cell growth at 10 uM after 48 hrs by sulforhodamine B assay relative to control
[30] = tested on: MDA-MB-231; test: Anticancer activity against human MDA-MB-231 cells assessed cell growth at 10 uM after 48 hrs by sulforhodamine B assay relative to control
[31] = tested on: TK-10; test: Anticancer activity against human TK10 cells assessed cell growth at 10 uM after 48 hrs by sulforhodamine B assay relative to control
[32] = tested on: NCI-H522; test: Anticancer activity against human NCI-H522 cells assessed cell growth at 10 uM after 48 hrs by sulforhodamine B assay relative to control
[33] = Anticancer activity against human RPMI8266 cells assessed cell growth at 10 uM after 48 hrs by sulforhodamine B assay relative to control
[34] = tested on: RXF 393; test: Anticancer activity against human RXF393 cells assessed cell growth at 10 uM after 48 hrs by sulforhodamine B assay relative to control
[35] = tested on: MCF7; test: Anticancer activity against human MCF7 cells assessed cell growth at 10 uM after 48 hrs by sulforhodamine B assay relative to control
[36] = tested on: OVCAR-4; test: Anticancer activity against human OVCAR4 cells assessed cell growth at 10 uM after 48 hrs by sulforhodamine B assay relative to control
[37] = tested on: NCI-H460; test: Anticancer activity against human NCI-H460 cells assessed cell growth at 10 uM after 48 hrs by sulforhodamine B assay relative to control
[38] = tested on: MDA-MB-468; test: Anticancer activity against human MDA-MB-468 cells assessed cell growth at 10 uM after 48 hrs by sulforhodamine B assay relative to control
[39] = tested on: UO-31; test: Anticancer activity against human UO31 cells assessed cell growth at 10 uM after 48 hrs by sulforhodamine B assay relative to control
[40] = tested on: HCT-116; test: Anticancer activity against human HCT116 cells assessed cell growth at 10 uM after 48 hrs by sulforhodamine B assay relative to control
[41] = tested on: NCI-H23; test: Anticancer activity against human NCI-H23 cells assessed cell growth at 10 uM after 48 hrs by sulforhodamine B assay relative to control
[42] = tested on: T47D; test: Anticancer activity against human T47D cells assessed cell growth at 10 uM after 48 hrs by sulforhodamine B assay relative to control
[43] = tested on: SK-MEL-2; test: Anticancer activity against human SK-MEL-2 cells assessed cell growth at 10 uM after 48 hrs by sulforhodamine B assay relative to control

CCCCCCCCCCCCCCCC[n+]1ccn(C)c1.[Cl-]
Activity [1]: -77.38% | Activity [2]: -86.22% | Activity [3]: -75.88% | Activity [4]: -83.54% | Activity [5]: -60.54% | Activity [6]: -0.6% | Activity [7]: -69.69% | Activity [8]: 45.73% | Activity [9]: -55.77% | Activity [10]: -67.13% | Activity [11]: -94.58% | Activity [12]: -82.71% | Activity [13]: -33.78% | Activity [14]: -95.2% | Activity [15]: -100% | Activity [16]: -100% | Activity [17]: -80.2% | Activity [18]: 33.57% | Activity [19]: -61.13% | Activity [20]: -50.37% | Activity [21]: -22.98% | Activity [22]: 15.17% | Activity [23]: -98.62% | Activity [24]: -94.43% | Activity [25]: -66.67% | Activity [26]: -73.7% | Activity [27]: 37.13% | Activity [28]: 72.56% | Activity [29]: -67.51% | Activity [30]: -93.87% | Activity [31]: -80.37% | Activity [32]: -87.38% | Activity [33]: 15.77% | Activity [34]: -66.19% | Activity [35]: -79.92% | Activity [36]: -54.83% | Activity [37]: -87.94% | Activity [38]: -78.99% | Activity [39]: -85.85% | Activity [40]: -87.23% | Activity [41]: -51.9% | Activity [42]: -0.13% | Activity [43]: -64.47%

COCC[n+]1ccn(C)c1.O=S(=O)([N-]S(=O)(=O)C(F)(F)F)C(F)(F)F
Activity [1]: 125.61% | Activity [2]: 106.63% | Activity [3]: 93.88% | Activity [4]: 91.87% | Activity [5]: 100.3% | Activity [6]: 96.19% | Activity [7]: 99.43% | Activity [8]: 103.77% | Activity [9]: 117.7% | Activity [10]: 77.53% | Activity [11]: 105.79% | Activity [12]: 93.93% | Activity [13]: 107.49% | Activity [14]: 100.51% | Activity [15]: 111.85% | Activity [16]: 78.17% | Activity [17]: 71.88% | Activity [18]: 55.66% | Activity [19]: 100.25% | Activity [20]: 92.96% | Activity [21]: 107.22% | Activity [22]: 116.69% | Activity [23]: 80.79% | Activity [24]: 101.04% | Activity [25]: 99.89% | Activity [26]: 110.1% | Activity [27]: 100.1% | Activity [28]: 109.67% | Activity [29]: 112.96% | Activity [30]: 120.14% | Activity [31]: 123.77% | Activity [32]: 84.3% | Activity [33]: 62.23% | Activity [34]: 103.9% | Activity [35]: 101.56% | Activity [36]: 105.25% | Activity [37]: 108.75% | Activity [38]: 106.36% | Activity [39]: 71.37% | Activity [40]: 102.12% | Activity [41]: 96.12% | Activity [42]: 100.59% | Activity [43]: 93.96%

CCCCCC[n+]1ccn(C)c1.FC(F)(F)C(F)(F)[P-](F)(F)(F)(C(F)(F)C(F)(F)F)C(F)(F)C(F)(F)F
Activity [1]: 102.23% | Activity [2]: 100.39% | Activity [3]: 82.22% | Activity [4]: 53.43% | Activity [5]: 57.04% | Activity [6]: 54.23% | Activity [7]: 107.66% | Activity [8]: 96.2% | Activity [9]: 51.22% | Activity [10]: 78.12% | Activity [11]: 68.28% | Activity [12]: 88.12% | Activity [13]: 85.24% | Activity [14]: 51.37% | Activity [15]: 66.89% | Activity [16]: 86.43% | Activity [17]: 85.4% | Activity [18]: 65.92% | Activity [19]: 34.16% | Activity [20]: 59.38% | Activity [21]: 103.36% | Activity [22]: 77.17% | Activity [23]: 88.07% | Activity [24]: 76.85% | Activity [25]: 80.17% | Activity [26]: 88.81% | Activity [27]: 54.24% | Activity [28]: 68.14% | Activity [29]: 105.17% | Activity [30]: 73.1% | Activity [31]: 67.04% | Activity [32]: 58.3% | Activity [33]: 53.67% | Activity [34]: 92.19% | Activity [35]: 62.49% | Activity [36]: 59.66% | Activity [37]: 51.46% | Activity [38]: 39.66% | Activity [39]: 71.06% | Activity [40]: 32.03% | Activity [41]: 45.51% | Activity [42]: 55.53% | Activity [43]: 47.53%
